Assay results taken from US20240002450A1 (priority 2020, published 2024).
Bridge positions count the residues as written; N and C are the ends. Square brackets hold non-standard residues; d marks the D form. Peptide text beside a SMILES is read from it. S5 = C=CCCC[C@](C)(N)C(=O)O; βAla = NCCC(=O)O

Test system: Makona variant of EBOV
Assay type: cell-based, Ebola virus

| Compound | antiviral activity (prevention of EBOV infection) |
| --- | --- |
| HX1WTKNITX2KINQIIHDFVNK, wherein X1 is (R)-2-(7′-octenyl) alanine and X2 is (S)-2-(4′-pentenyl)Alanine [SEboV-1] | displayed antiviral activity |
| HX1WTKX2ITDKINQIIHDFVNK, wherein each of X1 and X2 is (S)-2-(4′-pentenyl)Alanine [SEboV-2] | displayed antiviral activity |

Test system: Zaire Ebola virus
Assay type: cell-based

| Compound | infected cells after 24 hours of infection | inhibition of virus infection at six hours post-infection |
| --- | --- | --- |
| HDWTKNITDKIX1QIIX2DFVDK, wherein each of X1 and X2 is (S)-2-(4′-pentenyl)Alanine [Ac9] | almost no infected cells | inhibited the virus |
| HDWTX1NIX2DKIX3QIIHDFVDK, wherein X1 is (S)-2-(4′-pentenyl)Alanine, X2 is 2,2-bis(4-pentenyl)glycine, and X3 is (S)-2-(4′-pentenyl)Alanine [Ac5] | almost no infected cells | inhibited the virus |
| HX1WTKX2ITDKIDQIIHDFVDK, wherein each of X1 and X2 is (S)-2-(4′-pentenyl)Alanine [Ac3] | almost no infected cells | inhibited the virus |
| X1DWTKNIX2DKIDQIIHDFVDK, wherein X1 is (R)-2-(7′-octenyl) alanine and X2 is (S)-2-(4′-pentenyl)Alanine [Ac4] | almost no infected cells | inhibited the virus |

Test system: Huh-7 hepatocellular carcinoma cells

| Compound | cell permeability (ability to enter cells) |
| --- | --- |
| CC[C@H](C)[C@H](NC(=O)[C@H](CCC(N)=O)NC(=O)[C@H](CC(N)=O)NC(=O)[C@@H](NC(=O)[C@]1(C)CCCC=CCCC[C@](C)(NC(=O)[C@H](CCCCN)NC(=O)[C@@H](NC(=O)[C@H](Cc2c[nH]c3ccccc23)NC(=O)[C@H](CC(N)=O)NC(=O)[C@H](Cc2c[nH]cn2)NC(=O)CCNC(C)=O)[C@@H](C)O)C(=O)N[C@@H]([C@@H](C)CC)C(=O)N[C@@H]([C@@H](C)O)C(=O)N[C@@H](CC(N)=O)C(=O)N1)[C@@H](C)CC)C(=O)N[C@H](C(=O)N[C@@H](Cc1c[nH]cn1)C(=O)N[C@@H](CC(=O)O)C(=O)N[C@@H](Cc1ccccc1)C(=O)N[C@H](C(=O)N[C@@H](CC(N)=O)C(=O)N[C@@H](CCCCN)C(N)=O)C(C)C)[C@@H](C)CC [SEboV-9, HNWTKX1ITNX2INQIIHDFVNK, wherein each of X1 and X2 is (S)-2-(4′-pentenyl)Alanine] (Ac-[βAla]HNWTK[S5]ITN[S5]INQIIHDFVNK-NH2; staple 7-11) | readily penetrated cells |
| CC[C@H](C)[C@H](NC(=O)[C@H](CCCCN)NC(=O)[C@H](CC(=O)O)NC(=O)[C@@H](NC(=O)[C@@H](NC(=O)[C@H](CC(N)=O)NC(=O)[C@H](CCCCN)NC(=O)[C@@H](NC(=O)[C@H](Cc1c[nH]c2ccccc12)NC(=O)[C@H](CC(=O)O)NC(=O)[C@H](Cc1c[nH]cn1)NC(=O)CCNC(C)=O)[C@@H](C)O)[C@@H](C)CC)[C@@H](C)O)C(=O)N[C@@H](CC(=O)O)C(=O)N[C@@H](CCC(N)=O)C(=O)N[C@H](C(=O)N[C@H](C(=O)N[C@@H](Cc1c[nH]cn1)C(=O)N[C@@H](CC(=O)O)C(=O)N[C@@H](Cc1ccccc1)C(=O)N[C@H](C(=O)N[C@@H](CC(=O)O)C(=O)N[C@@H](CCCCN)C(N)=O)C(C)C)[C@@H](C)CC)[C@@H](C)CC [WT EboV, reference compound] | not cell permeable |
